Measurements as given in the supplement of paper PMC4862054.
Values joined by “and” are separate entries in the source; they are usually repeats but may differ in a detail not shown here. Identical values can stand only once. Blank lines part the entries; values can stand above or below the molecule they belong to.

Tests used:
MFM-223 [1] = details: 72 h
How it was run: (§1)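 Viability of breast cancer cell lines was measured with CellTiter-Blue after 72 h of incubation on compound-loaded 384-well plates. Cells were seeded in 20 µl onto compound dissolved in 5 µl medium, and 2.5 µl reagent was added for 2 h at 37 °C before reading at 560/590 nm. EC50 was fitted from percent-inhibition dose-response data censored at the highest concentration, normalised per plate to vehicle and a positive kill control, with zero drug sensitivity score rows dropped.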

BT-474 = assay: normalised viability (% of control), CellTiter-Blue; higher = more viable cells (100 = DMSO, 0 = benzethonium chloride kill control); details: incubation time: 72 h
Procedure: (§2)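 DSRT, CellTiter-Blue viability, 72 h incubation. Signal is normalised to DMSO and benzethonium chloride controls. Value is the normalised response at dose 1.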

BT-549 [2] = assay: as above; details: incubation time: 72 h
Procedure: as §2

CAL-120 [3] = assay: as above; details: incubation time: 72 h
Procedure: as §2

CAL-148 = assay: as above; details: incubation time: 72 h
Procedure: as §2

CAL-51 = assay: as above; details: incubation time: 72 h
Procedure: as §2

CAL-85-1 [4] = assay: as above; details: incubation time: 72 h
Procedure: as §2

DU-4475 = assay: as above; details: incubation time: 72 h
Procedure: as §2

HCC1143 [5] = assay: as above; details: incubation time: 72 h
Procedure: as §2

HCC1599 [6] = assay: as above; details: incubation time: 72 h
Procedure: as §2

HCC1937 = assay: as above; details: incubation time: 72 h
Procedure: as §2

HDQ-P1 = assay: as above; details: incubation time: 72 h
Procedure: as §2

Hs578T = assay: as above; details: incubation time: 72 h
Procedure: as §2

MDA-MB-231 = assay: as above; details: incubation time: 72 h
Procedure: as §2

MDA-MB-436 [7] = assay: as above; details: incubation time: 72 h
Procedure: as §2

MDA-MB-453 = assay: as above; details: incubation time: 72 h
Procedure: as §2

MDA-MB-468 = assay: as above; details: incubation time: 72 h
Procedure: as §2

MFM-223 [8] = assay: as above; details: incubation time: 72 h
Procedure: as §2

SK-BR-3 = assay: as above; details: incubation time: 72 h
Procedure: as §2

CAL-85-1 [9] = assay: drug sensitivity score (DSS), CellTiter-Glo (DSS (AUC-based score)); higher = stronger drug effect (viability inhibition or cytotoxicity); extreme values may be limits of the assay; details: incubation time: 72 h
How it was run: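 Using 20 µl of cell suspension per well, breast cancer cell lines were seeded into 384-well plates pre-loaded with compound at 5 concentrations in 10-fold steps across a compound-specific 10,000-fold range. Incubation lasted 72 h, after which CellTox Green fluorescence at 485/520 nm and then CellTiter-Glo luminescence, following 10 min at room temperature, were recorded. Each plate was normalised to 0.1 % DMSO and a positive kill control before the drug sensitivity score was derived from the area under the fitted dose-response curve.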

BT-549 [10] = details: 72 h
How it was run: as §1

CAL-120 [11] = details: 72 h
How it was run: as §1

HCC1143 [12] = details: 72 h
How it was run: as §1

HCC1599 [13] = details: 72 h
How it was run: as §1

MDA-MB-436 [14] = details: 72 h
How it was run: as §1

SMILES: O=C(CCBr)N1CCN(C(=O)CCBr)CC1 [Pipobroman]
EC50, CellTiter-Blue viability (MFM-223 [1]): 6190 nM
normalised viability (BT-474; 1 nM): 98.9%
normalised viability (BT-549 [2]; 1 nM): 83.2%
normalised viability (CAL-120 [3]; 1 nM): 89.1%
normalised viability (CAL-148; 1 nM): 115%
normalised viability (CAL-51; 1 nM): 112%
normalised viability (CAL-85-1 [4]; 1 nM): 96%
normalised viability (DU-4475; 1 nM): 111%
normalised viability (HCC1143 [5]; 1 nM): 94.7%
normalised viability (HCC1599 [6]; 1 nM): 103%
normalised viability (HCC1937; 1 nM): 87.4%
normalised viability (HDQ-P1; 1 nM): 99.3%
normalised viability (Hs578T; 1 nM): 95.3%
normalised viability (MDA-MB-231; 1 nM): 97.8%
normalised viability (MDA-MB-436 [7]; 1 nM): 107%
normalised viability (MDA-MB-453; 1 nM): 108%
normalised viability (MDA-MB-468; 1 nM): 95%
normalised viability (MFM-223 [8]; 1 nM): 82.8%
normalised viability (SK-BR-3; 1 nM): 92.1%
drug sensitivity score (CAL-85-1 [9]): 0

SMILES: c1cc(CN2CCCNCCNCCCNCC2)ccc1CN1CCCNCCNCCCNCC1 [Plerixafor]
normalised viability (BT-474; 0.25 nM): 84%
normalised viability (BT-549 [2]; 0.25 nM): 86.8%
normalised viability (CAL-120 [3]; 0.25 nM): 90%
normalised viability (CAL-148; 0.25 nM): 87.3%
normalised viability (CAL-51; 0.25 nM): 103%
normalised viability (CAL-85-1 [4]; 0.25 nM): 84.2%
normalised viability (DU-4475; 0.25 nM): 105%
normalised viability (HCC1143 [5]; 0.25 nM): 90.9%
normalised viability (HCC1599 [6]; 0.25 nM): 107%
normalised viability (HCC1937; 0.25 nM): 82.5%
normalised viability (HDQ-P1; 0.25 nM): 104%
normalised viability (Hs578T; 0.25 nM): 104%
normalised viability (MDA-MB-231; 0.25 nM): 93.8%
normalised viability (MDA-MB-436 [7]; 0.25 nM): 110%
normalised viability (MDA-MB-453; 0.25 nM): 129%
normalised viability (MDA-MB-468; 0.25 nM): 96.5%
normalised viability (MFM-223 [8]; 0.25 nM): 99%
normalised viability (SK-BR-3; 0.25 nM): 91.5%
drug sensitivity score (CAL-85-1 [9]): 0

SMILES: C[C@]12C=CC(=O)C=C1CC[C@@H]1[C@@H]2[C@@H](O)C[C@@]2(C)[C@H]1CC[C@]2(O)C(=O)CO [Prednisolone]
normalised viability (BT-474; 1 nM): 117%
normalised viability (BT-549 [2]; 1 nM): 101%
normalised viability (CAL-120 [3]; 1 nM): 83.5%
normalised viability (CAL-148; 1 nM): 111%
normalised viability (CAL-51; 1 nM): 104%
normalised viability (CAL-85-1 [4]; 1 nM): 97.7%
normalised viability (DU-4475; 1 nM): 95.6%
normalised viability (HCC1143 [5]; 1 nM): 95.1%
normalised viability (HCC1599 [6]; 1 nM): 118%
normalised viability (HCC1937; 1 nM): 88.8%
normalised viability (HDQ-P1; 1 nM): 85.7%
normalised viability (Hs578T; 1 nM): 122%
normalised viability (MDA-MB-231; 1 nM): 105%
normalised viability (MDA-MB-436 [7]; 1 nM): 108%
normalised viability (MDA-MB-453; 1 nM): 100%
normalised viability (MDA-MB-468; 1 nM): 109%
normalised viability (MFM-223 [8]; 1 nM): 102%
normalised viability (SK-BR-3; 1 nM): 130%
drug sensitivity score (CAL-85-1 [9]): 0

EC50, CellTiter-Blue viability (BT-549 [10]): 27.1 nM
SMILES: CNC(=O)c1cc(Oc2ccc(NC(=O)Nc3ccc(Cl)c(C(F)(F)F)c3)cc2)ccn1 [Sorafenib]
EC50, CellTiter-Blue viability (MFM-223 [1]): 952 nM
normalised viability (BT-474; 0.1 nM): 109% and 85.3%
normalised viability (BT-549 [2]; 0.1 nM): 119% and 96%
normalised viability (CAL-120 [3]; 0.1 nM): 97.8% and 95.4%
normalised viability (CAL-148; 0.1 nM): 112% and 109%
normalised viability (CAL-51; 0.1 nM): 111% and 95.4%
normalised viability (CAL-85-1 [4]; 0.1 nM): 104% and 103%
normalised viability (DU-4475; 0.1 nM): 96.9% and 115%
normalised viability (HCC1143 [5]; 0.1 nM): 109% and 96%
normalised viability (HCC1599 [6]; 0.1 nM): 106% and 123%
normalised viability (HCC1937; 0.1 nM): 101% and 85.2%
normalised viability (Hs578T; 0.1 nM): 113% and 99%
normalised viability (MDA-MB-231; 0.1 nM): 92.8% and 93.4%
normalised viability (MDA-MB-436 [7]; 0.1 nM): 88% and 95.8%
normalised viability (MDA-MB-453; 0.1 nM): 109% and 102%
normalised viability (MFM-223 [8]; 0.1 nM): 102% and 105%
normalised viability (SK-BR-3; 0.1 nM): 103% and 90.7%
drug sensitivity score (CAL-85-1 [9]): 0

EC50, CellTiter-Blue viability (BT-549 [10]): 77.1 nM
EC50, CellTiter-Blue viability (HCC1143 [12]): 652 nM
EC50, CellTiter-Blue viability (HCC1599 [13]): 102 nM
EC50, CellTiter-Blue viability (MDA-MB-436 [14]): 110 nM
SMILES: CC[C@@]1(O)C(=O)OCc2c1cc1n(c2=O)Cc2cc3c(CN(C)C)c(O)ccc3nc2-1 [Topotecan]
EC50, CellTiter-Blue viability (CAL-120 [11]): 79.9 nM
normalised viability (BT-474; 0.1 nM): 111%
normalised viability (BT-549 [2]; 0.1 nM): 96.1%
normalised viability (CAL-120 [3]; 0.1 nM): 85.9%
normalised viability (CAL-148; 0.1 nM): 103%
normalised viability (CAL-51; 0.1 nM): 92.5%
normalised viability (CAL-85-1 [4]; 0.1 nM): 85.5%
normalised viability (DU-4475; 0.1 nM): 102%
normalised viability (HCC1143 [5]; 0.1 nM): 98.3%
normalised viability (HCC1599 [6]; 0.1 nM): 90.8%
normalised viability (HCC1937; 0.1 nM): 81.5%
normalised viability (HDQ-P1; 0.1 nM): 115%
normalised viability (Hs578T; 0.1 nM): 110%
normalised viability (MDA-MB-231; 0.1 nM): 98.6%
normalised viability (MDA-MB-436 [7]; 0.1 nM): 99.9%
normalised viability (MDA-MB-453; 0.1 nM): 110%
normalised viability (MDA-MB-468; 0.1 nM): 107%
normalised viability (MFM-223 [8]; 0.1 nM): 100%
normalised viability (SK-BR-3; 0.1 nM): 92.4%
drug sensitivity score (CAL-85-1 [9]): 11.1
